Assay [1] deals with T1, MtrR (Neisseria gonorrhoeae, UniProt P39897).
T1 construct: Hexa-histidine tag with TEV protease cleavage site (N, cleaved yes); made in house; host or cells: E. coli Rosetta Gami B(DE3) pLysS
The assay can be described thus: Isothermal titration calorimetry, ligand binding to MtrR WT. Conditions: ITC. On the technique in general: ITC needs no label: the signal is the heat of the interaction.

Assay [2] concerns the target T1, MtrR. Further details: method as in PMID 31331979. The conditions noted are these: cited from earlier work.
The next assay deals with ngo1249-lacZ expression. The assay can be described thus: β-galactosidase assay, ngo1249-lacZ fusion (negative control gene). The conditions noted are these: WT-NGO1249-lacZ, 100 µM hormone.
In a further assay the target is T2, MtrR W136A (Neisseria gonorrhoeae, UniProt P39897, W136A).
T2 construct: Hexa-histidine tag with TEV protease cleavage site (N, cleaved yes); made in house; host or cells: E. coli Rosetta Gami B(DE3) pLysS
T2 sequence (P39897 whole entry W136A): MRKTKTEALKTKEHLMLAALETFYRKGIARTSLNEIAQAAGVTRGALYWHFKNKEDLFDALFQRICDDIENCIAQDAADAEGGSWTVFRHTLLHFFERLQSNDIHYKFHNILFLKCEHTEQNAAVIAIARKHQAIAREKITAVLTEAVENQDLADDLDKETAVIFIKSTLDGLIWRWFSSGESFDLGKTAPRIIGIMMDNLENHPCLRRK
The assay can be described thus: biochemical. Conditions: ITC. The assay is classed as binding.

For the next assay, the system named is mtrC-lacZ expression. In kind it is cell-based, Neisseria gonorrhoeae. Conditions: only when strain produced wild-type MtrR.
A further assay concerns the target T3, MtrR D171A (Neisseria gonorrhoeae, UniProt P39897, D171A).
T3 construct: Hexa-histidine tag with TEV protease cleavage site (N, cleaved yes); made in house; host or cells: E. coli Rosetta Gami B(DE3) pLysS
The assay is described as follows: biochemical. In kind it is binding. The conditions noted are these: ITC.

The subject of the next assay is rpoH-lacZ expression. The assay is classed as cell-based, Neisseria gonorrhoeae. The conditions noted are these: only when strain produced wild-type MtrR.
In assay [3] the target is T4, MtrR binding to mtrCDE operator (21mer) (Neisseria gonorrhoeae, UniProt P39897).
T4 construct: Hexa-histidine tag with TEV protease cleavage site (N, cleaved yes); made in house; host or cells: E. coli Rosetta Gami B(DE3) pLysS
T4 sequence (P39897 whole entry): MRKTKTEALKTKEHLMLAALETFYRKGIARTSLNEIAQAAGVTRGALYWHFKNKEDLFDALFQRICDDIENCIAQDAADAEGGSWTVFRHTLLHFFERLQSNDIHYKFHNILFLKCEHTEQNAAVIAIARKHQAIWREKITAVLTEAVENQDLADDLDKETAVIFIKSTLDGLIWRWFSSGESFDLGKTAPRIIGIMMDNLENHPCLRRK
The assay can be described thus: Plate-based fluorescence polarization DNA-binding assay, mtrCDE operator. Conditions: mtrCDE 21mer + 125µM. Here is the method:
(§1) To analyze the effect of ethinyl estradiol on DNA binding by MtrR, fluorescence polarization DNA-binding data were collected in 96-well plates (Costar #3915 black, flat bottom). with a SpectraMax M5e Microplate Reader (Molecular Devices) and analyzed with Prism (Graphpad Software, version 10.0.0). Purified MtrR was buffer exchanged into “DNA” binding buffer (150 mM NaCl, 20 mM Tris-HCl pH 7.5, 2.5% glycerol, 1 mM TCEP). […] The binding affinity of protein for DNA was determined using the Morrison’s quadratic equation[72]. BSA and dI-dC are included as carriers and to control for nonspecific DNA binding. Samples were excited at 485 nm and polarized emissions measured at 525 nm, with a 515 nm cutoff. Controls were run with no protein (DNA ± methanol, ethinyl estradiol) to ensure that millipolarization values were not affected by experimental conditions alone. At least three independent experimental measurements were averaged for each reported binding constant.
(§2) Figure S2: Presence of Ethinyl Estradiol influences binding of MtrR to rpoH and mtrCDE operators. Plate based Fluorescence polarization DNA-binding isotherms reveal decreases in the binding affinity of MtrR for the rpoH and mtrCDE operators in the presence of ethinyl estradiol.
(§3) Experiments were run on the three independent experimental measurements were averaged for each reported binding constant. Data are represented by the mean values (point) +/- SEM (error
(In general: In fluorescence polarisation assays a small probe gives low polarisation when free and higher when bound to something large.)

Assay [4] concerns the target T5, MtrR binding to rpoH operator (27mer) (Neisseria gonorrhoeae, UniProt P39897).
T5 construct: Hexa-histidine tag with TEV protease cleavage site (N, cleaved yes); made in house; host or cells: E. coli Rosetta Gami B(DE3) pLysS
The assay is described as follows: Plate-based fluorescence polarization DNA-binding assay, rpoH operator. Conditions: for fluorescence polarization, plate-based MtrR titration: rpoH 27mer + 125µM. Here is the method: as §1, §2, §3

“And” between values parts separate entries of the source, which are not always exact repeats. Identical values can stand only once. “Also recorded” adds a separate entry of the source.

The term Kd denotes the free concentration of one partner at which half of the binding sites on the other are occupied at equilibrium, for simple one-to-one binding.

T5 sequence (P39897 whole entry): as above
T1 sequence (P39897 whole entry): as above
T3 sequence (P39897 whole entry D171A): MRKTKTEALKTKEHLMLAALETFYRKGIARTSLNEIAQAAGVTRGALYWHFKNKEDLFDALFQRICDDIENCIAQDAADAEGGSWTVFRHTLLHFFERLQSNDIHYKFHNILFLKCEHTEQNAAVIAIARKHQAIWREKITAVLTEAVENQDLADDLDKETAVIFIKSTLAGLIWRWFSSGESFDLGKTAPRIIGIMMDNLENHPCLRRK

For `C[C@]12CCC(=O)C=C1CC[C@@H]1[C@@H]2[C@@H](O)C[C@@]2(C)[C@H]1CC[C@]2(O)C(=O)CO` [cortisol], at MtrR [1], the “binding to MtrR WT” value was “no binding”.

For `C[C@H](CCC(=O)NCCS(=O)(=O)O)[C@H]1CC[C@H]2[C@@H]3CC[C@@H]4C[C@H](O)CC[C@]4(C)[C@H]3C[C@H](O)[C@]12C` [taurodeoxycholate], the “MtrR binding and induction” value on MtrR [2] is “binds and is induced by”.

With `CC[C@H]1OC(=O)[C@H](C)[C@@H](O[C@H]2C[C@@](C)(OC)[C@@H](O)[C@H](C)O2)[C@H](C)[C@@H](O[C@@H]2O[C@H](C)C[C@H](N(C)C)[C@H]2O)[C@](C)(O)C[C@@H](C)CN(C)[C@H](C)[C@@H](O)[C@]1(C)O` [azithromycin], on MtrR [1], the “binding to MtrR WT” value is recorded as “no binding; also recorded: does not bind”.

For `CC12CCC3c4ccc(O)cc4CCC3C1CCC2O` (stereo not drawn) [Beta-Estradiol], in the assay with ngo1249-lacZ expression, the “Mean Miller units” value was 4.6 Miller units.

Consider `C#C[C@]1(O)CC[C@H]2[C@@H]3CCc4cc(O)ccc4[C@H]3CC[C@@]21C` [Ethinyl Estradiol, ethinyl estradiol], for which, on MtrR W136A, the “binding to MtrR W136A compared with wild type” value is “tolerates binding”. In addition, the “induction of mtrC expression” value in the assay on mtrC-lacZ expression is listed as “could induce expression”. Moreover, at MtrR D171A, the “binding to MtrR D171A” value is “no observable binding”. In addition, at MtrR [1], the “binding stoichiometry N (ligand per MtrR)” value is recorded as ~ 1. The Kd on MtrR [1] (25 °C, 1% MeOH, read-out: equilibrium dissociation constant (Kd), MtrR WT) was 940 nM and ~940 nM. Moreover, the “induction of rpoH expression” value in the assay on rpoH-lacZ expression is listed as “could induce expression”. In addition, the “fluorescence polarization, plate-based MtrR titration” value (“fluorescence polarization” for short) in assay [3] (MtrR WT dimer 0 nM) was 0 mP; in assay [3] (MtrR WT dimer 37.5 nM) it was 6 mP and 5 mP; in assay [3] (MtrR WT dimer 75 nM) it was 9 mP and 8 mP and 10 mP; in assay [3] (MtrR WT dimer 100 nM), 11 mP and 12 mP; in [3] (MtrR WT dimer 150 nM), 12 mP and 15 mP and 13 mP; in assay [3] (MtrR WT dimer 200 nM), 18 mP and 21 mP and 16 mP. The “fluorescence polarization” value was 28 mP and 21 mP in assay [3] (MtrR WT dimer 300 nM); 26 mP and 30 mP and 27 mP in assay [3] (MtrR WT dimer 400 nM); 31 mP and 27 mP and 29 mP in assay [3] (MtrR WT dimer 600 nM); 33 mP and 36 mP and 34 mP in assay [3] (MtrR WT dimer 800 nM); 0 mP in [4] (MtrR WT dimer 0 nM); 5 mP and 3 mP and 4 mP in assay [4] (MtrR WT dimer 9.4 nM). Also, the “fluorescence polarization” value in assay [4] (MtrR WT dimer 25 nM) was 10 mP and 5 mP; in assay [4] (MtrR WT dimer 37.5 nM), 12 mP and 10 mP and 16 mP; in assay [4] (MtrR WT dimer 50 nM), 21 mP and 17 mP and 16 mP; in assay [4] (MtrR WT dimer 75 nM) it was 25 mP and 18 mP and 24 mP; in assay [4] (MtrR WT dimer 100 nM), 29 mP and 24 mP; in assay [4] (MtrR WT dimer 150 nM), 36 mP and 29 mP and 33 mP. Moreover, the “fluorescence polarization” value in assay [4] (MtrR WT dimer 200 nM) was 40 mP and 31 mP and 33 mP; in assay [4] (MtrR WT dimer 300 nM), 44 mP and 39 mP and 40 mP; in assay [4] (MtrR WT dimer 400 nM) it was 48 mP and 37 mP and 40 mP; in assay [4] (MtrR WT dimer 600 nM), 50 mP and 42 mP and 51 mP; in [4] (MtrR WT dimer 800 nM) it was 50 mP and 44 mP and 53 mP. Moreover, in [4] (presence of ethinyl estradiol, 125 µM), the “change in binding affinity of MtrR for rpoH operator” value is “decreases in”.

Consider `C[C@H](CCC(=O)O)[C@H]1CC[C@H]2[C@@H]3[C@H](O)C[C@@H]4C[C@H](O)CC[C@]4(C)[C@H]3CC[C@]12C` [chenodeoxycholate], for which the “MtrR binding and induction” value at MtrR [2] was “binds and is induced by”.

Turning to `CC(C)CCC[C@@H](C)[C@H]1CC[C@H]2[C@@H]3CC=C4C[C@@H](O)CC[C@]4(C)[C@H]3CC[C@]12C` [cholesterol], the “binding to MtrR WT” value at MtrR [1] was “no binding”.

Source of the values: paper PMC10850145, “Hormonal steroids induce multidrug resistance and stress response genes in Neisseria gonorrhoeae by binding to MtrR” (Nature Communications, 2024).
